Patent US10392398B2, “Inhibitors of Late SV40 Factor (LSF) as cancer chemotherapeutics” (TRUSTEES OF BOSTON UNIVERSITY, priority 2010, dated 2019)
Several values for one entry are separate records, joined by “and”; a condition that tells them apart may be missing. Equal values may be shown once. Read-outs that look alike come from different tables or passages of the source.

Legend:
Type in all cases: cell-based
[1] = tested on: NIH/3T3 cells; test: Cell proliferation assay (MTS), NIH/3T3; settings: Mus musculus, NIH3T3
Protocol: (§1) Cells were plated at 3×10^4 cells/mL, A549 and HeLa, and 1×10^4 cells/mL, NIH/3T3, in 96-well plates and incubated for 24 h to allow for cell adhesion. LSF-library compounds were dissolved in DMSO, serial diluted in appropriate medium and added to cells in triplicate (2 plates). DMSO was added to control wells at a final concentration of 1%. After 72 h incubation in the presence of compound, confluent cells were assayed for growth proliferation with CellTiter 96® AQueous One Solution Cell Proliferation Assay (MTS) (Promega) according to the manufacturer's protocol. Plates were read at 490 nm on a microplate reader, and IC50 values were determined as the percentage of compound-treated cell growth to control cell growth. HCC cells—one hour after plating HCC cells onto 96-well plates, compound or vehicle (DMSO) was added to the desired concentrations, keeping DMSO at 0.5%. At indicated time points, cell viability was assayed using the CellTiter 96® Non-Radioactive Cell Proliferation Assay (MTT) (Promega).
(§2) QGY-7703 and A549 cells were cultured at 37° C. in 5% CO2 in DMEM (Dulbecco's modification of Eagle's Medium; Corning) supplemented with 10% Fetal Bovine Serum (FBS; Invitrogen). NIH-3T3 cells were cultured at 37° C. in 5% CO2 in DMEM supplemented with 10% Fetal Calf Serum (FCS; Atlanta Biologicals). For cell viability assays, 1,500 cells were seeded in 96-well plates and treated with FQI-34 or vehicle (DMSO) at appropriate concentrations (DMSO at 1%) after 20 hours. After 72-hour incubation with compound or vehicle, cell growth was assessed via the Promega CellTiter 96® AQueous One Solution Cell Proliferation Assay, a colorimetric method to determine the number of viable cells. 20 μL of the CellTiter 96® AQueous One Solution Reagent was added directly into cultured wells and incubated for one hour, after which the absorbance at 490 nm was read with a 96-well plate reader (Opys MR Microplate Reader). The CellTiter 96® AQueous One Solution contains an MTS tetrazolium compound which is bioreduced by cells into a colored formazan product that is soluble in tissue culture medium. The quantity of formazan product as measured by absorbance is directly proportional to the number of living cells in culture. GI50 values were determined from plots of the percentage of compound-treated cell growth to vehicle cell growth vs. compound concentration (GraphPad Prism; non-linear regression 4-parameter curve fit with variable slope).

[2] = tested on: A549 cells; test: Cell proliferation assay (MTS), A549; settings: for GI50: MTS
Protocol: as §1, §2

[3] = target: T1, LSF (Homo sapiens, UniProt Q12800); test: LSF-dependent luciferase reporter assay in NIH 3T3 cells; design: expressed in transfected cells; host or cells: NIH 3T3
T1 sequence (Q12800 1-502): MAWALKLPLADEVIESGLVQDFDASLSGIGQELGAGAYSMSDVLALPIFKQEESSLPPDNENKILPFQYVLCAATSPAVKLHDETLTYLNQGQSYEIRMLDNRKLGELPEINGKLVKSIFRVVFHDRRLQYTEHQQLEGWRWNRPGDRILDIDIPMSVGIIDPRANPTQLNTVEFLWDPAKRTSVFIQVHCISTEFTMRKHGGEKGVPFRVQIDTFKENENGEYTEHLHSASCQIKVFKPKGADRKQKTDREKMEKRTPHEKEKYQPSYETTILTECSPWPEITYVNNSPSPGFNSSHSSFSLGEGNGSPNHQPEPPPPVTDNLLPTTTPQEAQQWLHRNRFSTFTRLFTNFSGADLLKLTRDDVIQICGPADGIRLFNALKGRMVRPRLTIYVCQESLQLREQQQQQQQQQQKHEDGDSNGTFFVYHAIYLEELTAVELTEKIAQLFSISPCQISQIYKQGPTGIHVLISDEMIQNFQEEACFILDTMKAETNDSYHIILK
Protocol: NIH 3T3 cells were transfected with the expression construct pEF1α-LSF, a LSF expression vector^6,20; the reporter construct pGL3B-WT4E1b, a firefly luciferase reporter vector driven by LSF^12; phRL-TK, a control renilla luciferase reporter vector; and pEFGP, essentially as previously described^12. Five hours after transfection, either vehicle (DMSO) or FQI compound was added, keeping DMSO at 0.5%. Cell extracts were harvested 36 hours post-transfection and firefly and renilla luciferase activities measured via a dual luciferase assay (Promega). Five μl of extract was mixed with 30 μl of luciferase assay reagent (Promega), and luminescence measured for 10 seconds using a 20/20n luminometer (Turner Biosystems). Subsequently, 30 μl of Stop & Glo reagent (Promega) was added, and luminescence also measured for 10 seconds. LSF transactivation activity is given as relative luciferase activity, the ratio of firefly to renilla activities.
NIH-3T3 cells were cultured at 37° C. in 5% CO2 in DMEM (Dulbecco's modification of Eagle's Medium; Corning) supplemented with 10% FCS (FCS; Atlanta Biologicals). Approximately 24 hours prior to transfection, 200,000 cells were plated in 35 mm dishes. After 24 hours, cells were ˜70% confluent, and were transfected for 5 hours with pEF1α-LSF, the reporter construct pGL3B-WT4E1b, phRLTK, and pEFGP (Grant, T. J. et al. Antiproliferative small-molecule inhibitors of transcription factor LSF reveal oncogene addiction to LSF in hepatocellular carcinoma. PNAS (2012), 109, 1-6). Vehicle (DMSO) or FQI-34 was then added, keeping the DMSO at 0.5%. Cell extracts were harvested 36 h post-transfection, and firefly and renilla luciferase activities were measured via a dual luciferase assay (Promega Dual-Luciferase Reporter Assay System). Relative luciferase activity represents firefly luciferase activity normalized to that of renilla luciferase in each extract. IC50 values were determined from plots of normalized luciferase activity vs. compound concentration (Prism GraphPad; non-linear regression 4-parameter curve fit with variable slope).

CCOc1ccccc1C1CC(=O)Nc2cc3c(cc21)OCO3 (racemic) [FQI1, 8-(2-ethoxyphenyl)-7,8-dihydro-[1,3]dioxolo[4,5-g]quinolin-6(5H)-one]
GI50 ([1]; 72 h, MTS, read-out: GI50 (μM) NIH/3T3): 3 µM
IC50 ([1]; Example 7, FIG. 8, read-out: growth inhibition of NIH/3T3 Cell Line IC50): 3000 ± 850 nM
GI50 ([1]; Table 3, read-out: GI50 (μM) NIH 3T3): 3 ± 0.9 µM
GI50 ([2]; Homo sapiens, 72 h, read-out: GI50 (μM) A549): 6.3 µM
IC50 ([2]; Homo sapiens, Example 7, FIG. 8, read-out: growth inhibition of A549 Cell Line IC50): 6300 ± 1100 nM
IC50 ([3]; NIH 3T3 cells, dual luciferase, ranges where few concentrations tested, read-out: IC50 (μM) LSF-dependent reporter assat NIH 3T3): ~2.4 µM and 2.4 µM

CCOc1cc(N(C)C)ccc1C1CC(=O)Nc2cc3c(cc21)OCO3 (centres unmarked) [FQI-34, 8-(4-(dimethylamino)-2-ethoxyphenyl)-7,8-dihydro-[1,3]dioxolo[4,5-g]quinolin-6(5H)-one]
GI50 ([1]; 1,500 cells seeded, 72-hour incubation, MTS, read-out: GI50 in NIH-3T3 cells): 1.49 µM
GI50 ([2]; Homo sapiens, 1,500 cells seeded, 72-hour incubation, read-out: GI50 in A549 cells): 1.8 µM
IC50 ([3]; Table 5, read-out: LSF-reporter assay IC50): 0.726 µM
IC50 ([3]; Table 8, read-out: LSF-reporter assay IC50): 0.726 µM
IC50 ([3]; dual-luciferase reporter, NIH-3T3, FIG. 12, read-out: LSF-Target affinity IC50): 0.59 µM
